These results are taken from US11591368B2, “Peptides for cancer treatment” (CHUNG SHAN MEDICAL UNIVERSITY, priority 2017, dated 2023).

One series has as its system CL1-5 lung cancer cells. The series can be described thus: Tumor growth in xenograft animal model. The format is in vivo. Here is the method:
Six-week old immune deficient BALB/CAnN.Cg-Foxn1nu/CrlBltw mice were housed in individual ventilated chambers (IVC). A total of 2×10^6 CL1-5 lung cancer cells in 100 μL PBS were mixed with 100 μL of 10× Matrigel. The lung cancer cells/Matrigel mix was injected subcutaneously to the lower back of the mice. Three days later, the mice were treated with 0, 10, 20, or 30 nmol of Fmoc-LT-1-3 subcutaneously everyday. The Fmoc-LT-1-3 peptide was dissolved in 100% DMSO and diluted to the desired concentration in PBS from day 3 to day 17. On the 18th day, we observed that 80% of control group animal, 40% of 10 nmol group animal, 20% of 20 nmol group animal, and 40% of 30 nmol group animal developed tumor. Percent of tumor free animal increased with increasing level of Fmoc-LT1-3 between 10 nmol and 20 nmol. […] This phenomenon may be due to lower solubility of Fmoc-LT1-3 at higher concentration. We thus decided to replace the solvent from DMSO with γ-CD, and diluted the peptide to the desired concentration for injection on the 18th day and thereafter. The volume of tumor was measured periodically. […] On the 39th day, animals were sacrificed. The tumor and organs were weighted, fixed and embedded in paraffin. Embedded tissue were sectioned and stained with hematoxylin-eosin for histologic analysis.

Series [1] relates to CL1-5 cells. Format: in vivo, mice. Here is the method: CL1-5 cells were washed, detached, and resuspended in PBS. Subsequently, a single-cell suspension containing 2×10^6 cell in 80 μL PBS was mixed with 20 μL 10× Matrigel (Corning, 5117012). The cell suspension was subcutaneously injected into the upper back of the immune deficient BALB/CAnN.Cg-Foxn1nu/CrlBltw mice. […] The tumor-bearing mice were divided into five groups (n=8/group). […] On day 13, the mice in the Fmoc-LT1-3 group were subcutaneously injected with 20 nmol Fmoc-LT1-3/γ-CD in the lower back daily. […] During the course of each treatment, the tumor volume was measured every 3 days. The mortality rates of mice were recorded, which included mice with tumor volume over 1500 mm^3. The percent of survival rate is recorded in FIG. 11 and the median survival of each group is calculated in Table 1.

The subject of series [2] is CL1-5 cells. Nature of the series: Cell proliferation assay in CL1-5 cells. Format: cell-based. The note with it: for growth inhibition (cell proliferation): Fmoc modified peptides, 24 h, FIG. 1 and FIG. 2; for Growth inhibition: LT fragments at 0, 12.5, 25 and 50 μM. Here is the method: The peptides described below were Fmoc modified and dissolved in DMSO and […] and then used in cell proliferation assay. CL1-5 cells were cultured to 80% confluence in RPMI medium containing 10% FBS. After detachment, 3×10^4[…]cells were seeded onto 12-well plates. After 16 h of incubation, cells were either harvested before treatment (designated as 0 h), or treated with LT peptides for 24 h (designated 24 h), and viable cells were counted. Relative fold-change in cell number or percent increase in cell growth (%) was calculated by following formula: (Cell number24h−Cell number0h)/(Cell number of control24h−Cell number of control0h).

Series [3] relates to CL1-5 cells. The series can be described thus: Cell invasion assay (Matrigel-coated modified Boyden chamber) in CL1-5 cells. The format is cell-based. As to conditions: for Invasion inhibition: LT fragments at 0, 12.5, 25 and 50 μM, FIG. 12. The method, then: Fmoc-LT1-3 peptides were used in cell invasion assay. A 24-well modified Boyden chamber with a polycarbonate membrane (8-μm pore size) was used for in vitro invasion assays. […] CL1-5 cells (3×10^4 cells/well) in RPMI medium with various concentrations of peptide were seeded onto the upper chamber. […] After 24 h of incubation, the cells were fixed with ice-cold 100% methanol and stained with 10% Giemsa. Following staining, cells on the upper side of the membrane were removed with a cotton swab. The number of invaded cells attached to the lower surface of the polycarbonate membranes was counted under a light microscope. All experiments were performed in triplicate.

A further series has as its system H1355. Nature of the series: Cell proliferation assay in H1355 lung cancer cell line. Format: cell-based. As to conditions: H1355, FIG. 4.
For a further series, the system named is H460. Nature of the series: Cell proliferation assay in H460 lung cancer cell line. Format: cell-based. The note with it: H460, FIG. 4.
In the next series the test system is A549. Nature of the series: Cell proliferation assay in A549 lung cancer cell line. Format: cell-based. The note with it: A549, FIG. 4.
Another series relates to H1299. The series can be described thus: Cell proliferation assay in H1299 lung cancer cell line. Format: cell-based. As to conditions: H1299, FIG. 4.

Where a SMILES comes first, the peptide text is derived from it. Where no end group is shown, it is not given here. The star is where a group is joined. Fmoc = O=C(OCC1c2ccccc2-c2ccccc21)*

Turning to `CC[C@H](C)[C@H](NC(=O)[C@H](Cc1c[nH]cn1)NC(=O)[C@H](Cc1ccccc1)NC(=O)OCC1c2ccccc2-c2ccccc21)C(=O)N[C@H](C(=O)N[C@@H](CCC(=O)O)C(=O)N[C@@H](CC(C)C)C(=O)N[C@@H](CC(C)C)C(=O)N[C@@H](C)C(=O)O)C(C)C` [Fmoc-LT1-3] (Fmoc-FHIVELLA-OH; N-terminus and C-terminus assumed), in the series with CL1-5 lung cancer cells (hematoxylin-eosin stained tissue, day 39), the “histologic analysis, toxicity” value is recorded as “did not reveal obvious toxicity”. In the series on CL1-5 lung cancer cells (treatment groups vs control group, day 39, FIG. 9), the “relative weight of organs” value was “no significant differences”. The “effect on cisplatin-induced toxicity” value in the series on CL1-5 cells [1] (combination treatment with cisplatin vs cisplatin only group) is given as “alleviate cisplatin-induced toxicity”.
For `O=S(=O)(NCCNC/C=C/c1ccc(Br)cc1)c1cccc2cnccc12` [H89, reference compound], the “LT-peptide-mediated growth inhibition together with PKA inhibitor (H89)” value with CL1-5 cells [2] (CL1-5 cells, FIG. 24) is reported as “enhances growth inhibition activity”.
Take `N.N.[Cl][Pt][Cl]` [cisplatin, reference compound]: the Median survival in the series on CL1-5 cells [1] (single agent: cisplatin 4 mg/kg IP weekly 4 times, or 20 nmol Fmoc-LT1-3/γ-CD s.c. daily) worked out at 37.5 days.
Take “AHIVELLA (Fmoc-AHIVELLA) [LT-A1, Fmoc modified in the proliferation assay]”: in the series on CL1-5 cells [2] (CL1-5 cells), the “growth inhibition (cell proliferation)” value is recorded as “better inhibition activity than F-moc-LT1-3 peptide”.
Turning to ASAIYSVETINDGNFHIVELLA [LT-1], the Invasion inhibition result with CL1-5 cells [3] was “inhibitory effect and Yes”. Also, in the series with CL1-5 cells [2] (CL1-5 cells), the Growth inhibition entry was “inhibitory effect and Yes”.
As for “FAIVELLA (Fmoc-FAIVELLA) [LT-A2, Fmoc modified in the proliferation assay]”, the “growth inhibition (cell proliferation)” value in the series on CL1-5 cells [2] (CL1-5 cells) is recorded as “better inhibition activity than F-moc-LT1-3 peptide”.
On the same count and under the same terms, the result for “FHIAELLA (Fmoc-FHIAELLA) [LT-A4, Fmoc modified in the proliferation assay]” reads “better inhibition activity than F-moc-LT1-3 peptide”.
Same read-out and setting: the entry for “FHIVEALA (Fmoc-FHIVEALA) [LT-A6, Fmoc modified in the proliferation assay]” is “better inhibition activity than F-moc-LT1-3 peptide”; for “FHIVELAA (Fmoc-FHIVELAA) [LT-A7, Fmoc modified in the proliferation assay]” it is “better inhibition activity than F-moc-LT1-3 peptide”.
Regarding “Fmoc-LT-A3: Fmoc binds to N terminal of FHAVELLA (SEQ ID NO:10) (Fmoc-FHAVELLA)”, the “growth inhibition in lung cancer cell lines” value in the series on H1355 is given as “greatly inhibited”; in the series with H460 it was “greatly inhibited”; in the series with CL1-5 cells [2] (CL1-5, FIG. 4), “greatly inhibited”; in the series with A549 it was “no effect”; in the series on H1299 it was “partially inhibited”. For the same compound, the cell invasion inhibition result in the series with CL1-5 cells [3] (Fmoc peptides, 24 h, FIG. 5) was “inhibited cell invasion”. Further, the “growth inhibition (cell proliferation)” value in the series with CL1-5 cells [2] (CL1-5 cells) is reported as “best growth inhibition capability”. The “growth inhibition, dose effect experiment” value in the series on CL1-5 cells [2] (Fmoc-LT-peptides, CL1-5 cells, FIG. 3) is “best growth inhibition capability”.
Turning to GGMPGKSNVASLRQAPGQNGTSF [LT-4], the Invasion inhibition result with CL1-5 cells [3] was “inhibitory effect on cell invasion only and Yes”. Further, the Growth inhibition result with CL1-5 cells [2] (CL1-5 cells) was “No”.
On to KIITNLSKQSTLNFDSPLYVGG [LT-3], for which, in the series with CL1-5 cells [3], the Invasion inhibition result is “inhibitory effect on cell invasion only and Yes”. Further, the Growth inhibition result in the series on CL1-5 cells [2] (CL1-5 cells) is on record as “No”.
Consider LRQAPGQNGTSFHGCIRNLYINSE [LT-5], for which the Invasion inhibition entry with CL1-5 cells [3] is “inhibitory effect on cell invasion only and Yes”. The Growth inhibition entry in the series on CL1-5 cells [2] (CL1-5 cells) is reported as “No”.
